In ChEMBL document CHEMBL3044936, “Antifeedant properties of natural products from Parthenium argentatum, P. argentatumP. tomentosum (Asteraceae) and Castela emoryi (Simaroubeaceae) against Reticulitermes flavipes” (1999):
Converted amounts (≈) assume the structure as drawn.

How the values were obtained:
Assay type in all cases: functional
Reticulitermes flavipes [1] = test: Antifeedant activity against Reticulitermes flavipes assessed as feeding inhibition at 2.7 ug/disk after 3 days by choice paper disk assay; settings: 72 h
Reticulitermes flavipes [2] = test: Antitermitic activity against Reticulitermes flavipes assessed as mortality at 5.5 ug/disk after 10 days by no-choice paper disk assay; settings: 240 h
Reticulitermes flavipes [3] = test: Antifeedant activity against Reticulitermes flavipes assessed as compound consumption at 5.5 ug/disk after 10 days by no-choice paper disk assay
Reticulitermes flavipes [4] = test: Ratio of mortality to compound consumption in Reticulitermes flavipes at 5.5 ug/disk after 10 days
Reticulitermes flavipes [5] = test: Antifeedant activity against Reticulitermes flavipes assessed as feeding inhibition after 3 days by choice paper disk assay; settings: 72 h, read-out: ED50 (the source's name)

Structure (SMILES) | inhibition at 2.7 µg/disc (Reticulitermes flavipes [1]) [%] | mortality at 5.5 µg/disc (Reticulitermes flavipes [2]) [%] | Activity (Reticulitermes flavipes [3]) [%] | Ratio (Reticulitermes flavipes [4]) | EC50 (Reticulitermes flavipes [5]) [µg/mL]
CC(C)(O)[C@@H]1CC[C@](C)([C@H]2[C@@H](O)C[C@@]3(C)C4=C(CC[C@]23C)[C@@]2(C)CCC(=O)C(C)(C)[C@@H]2CC4)O1 [INCANILIN] | 30.8 | 0 | 16 | 0 | > 1000
CC(=O)O[C@H]1C(=O)O[C@@H]2C[C@H]3C(C)=CC(=O)[C@@H](O)[C@]3(C)[C@H]3[C@]4(O)OC[C@]32[C@@H]1[C@@H](C)[C@H]4O [HOLACANTHONE] | 39.4 | 24 | 34 | 0.7 | > 1000
C/C1=C\[C@H]2[C@@H]([C@@H](O)C/C(C)=C/CC1)C2(C)C [PARTHENIOL] | 46 | 71 | 65 | 1.1 | 490 (≈ 2230 µM)
COc1ccc(C(=O)O[C@H]2C/C(C)=C/CC/C(C)=C/[C@H]3[C@@H]2C3(C)C)cc1 [GUAYULIN B] | 31.9 | 0 | 72 | 0 | > 1000
COC1=C[C@]2(C)CCC(C(C)C)=CC2=C(C)C1=O [ARGENTONE] | 70.5 | 66 | 33 | 2 | 85.7 (≈ 348 µM)
